Measurements from paper PMC4478806 (The FASEB Journal, 2015).
Values joined by “and” are separate entries in the source; they are usually repeats but may differ in a detail not shown here. Equal values may be shown once. Read-outs that look alike come from different tables or passages of the source.

Experiments:
human β1-adrenoceptor [1] = target: T1, human β1-adrenoceptor (Homo sapiens, UniProt P08588); assay: Association and dissociation kinetics of 10, 30 and 100 nM BODIPY-TMR-CGP in CHO-β1 cells (confocal perfusion system, single living cells); type: binding; settings: for pKD: from kon and koff(slow); for koff(fast): nonspecific component constrained to average CHO-CS dissociation rate
T1 construct: expressed in transfected cells
T1 sequence (P08588 whole entry, the tested form may be a part): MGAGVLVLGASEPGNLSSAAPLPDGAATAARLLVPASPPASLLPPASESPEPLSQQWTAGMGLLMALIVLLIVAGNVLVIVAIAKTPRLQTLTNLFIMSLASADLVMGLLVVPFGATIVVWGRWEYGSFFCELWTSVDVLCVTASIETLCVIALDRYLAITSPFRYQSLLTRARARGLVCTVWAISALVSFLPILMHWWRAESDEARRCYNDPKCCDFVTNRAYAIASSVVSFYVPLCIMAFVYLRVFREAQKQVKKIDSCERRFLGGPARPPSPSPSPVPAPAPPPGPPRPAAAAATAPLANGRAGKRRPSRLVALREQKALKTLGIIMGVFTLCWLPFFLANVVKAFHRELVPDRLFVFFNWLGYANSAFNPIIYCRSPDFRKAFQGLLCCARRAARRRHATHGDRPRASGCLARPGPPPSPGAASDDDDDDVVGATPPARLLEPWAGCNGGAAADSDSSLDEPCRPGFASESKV
Protocol: (§1) Live cell fluorescence imaging was performed on the Zeiss LSM510 laser scanning confocal microscope using a Zeiss Plan-Neofluar ×40 1.3 NA oil-immersion objective in conjunction with a temperature-controlled (37°C) perfusion system to allow the visualization and quantification of BODIPY-TMR-CGP dissociation kinetics under infinite dilution (ID) conditions in single living cells ([25]). Kinetic experiments were performed as described by May et al. ([25]). In brief, cells were grown to near confluence on 32 mm glass coverslips in 6-well plates 1 d prior to experimentation. On the day of experimentation, the coverslip was placed into a tightly closed imaging chamber on a heated (37°C) microscope stage, where it was connected to tubes to facilitate the flow of imaging buffer through the imaging chamber in the absence and presence of BODIPY-TMR-CGP and/or unlabeled ligands at a constant flow rate of ≥4 ml/min.
(§2) For association and dissociation kinetic experiments of 10–100 nM BODIPY-TMR-CGP in CHO-β1 and CHO-CS cells, the cells were exposed to imaging buffer only (30 s baseline fluorescence recording), then BODIPY-TMR-CGP (4.5 min association), and followed again by imaging buffer only (4.5 min dissociation). BODIPY-TMR-CGP was excited using a 543 nm helium-neon laser with emission collected through a 565 nm long-pass filter every 3 s throughout each experiment (512 × 512 pixels, averaging at 2 frames). The pinhole diameter (1 airy unit), laser power (2%), offset, and gain remained constant between the 3 BODIPY-TMR-CGP concentrations and the 2 cell lines used. Membrane-associated BODIPY-TMR-CGP fluorescence was measured by drawing regions of interest (ROIs) around the membranes of 10 single cells of each imaged coverslip, and changes in the average pixel intensity values for each ROI over time were analyzed to obtain association and dissociation rates for each experiment.
(§3) GraphPad Prism 5.0 (GraphPad Software, San Diego, CA, USA) was used to fit all data presented in this study. Association kinetic data were fitted using the following monoexponential association equation: [drawing 1] where Y0 is the level of BODIPY-TMR-CGP binding at time t = 0 (i.e., baseline fluorescence), Plateau is the level of BODIPY-TMR-CGP binding at infinite time, and konobs is the rate of observed association.
The koff is the dissociation rate of BODIPY-TMR-CGP. Where a level of nonspecific binding >10% of total binding was observed, the dissociation kinetic data were fitted to a 2-phase exponential decay function [drawing 5] where Plateau and t are as defined above, and Spanfast and Spanslow represent the proportion of Y0-Plateau accounted for by the fast (koff(fast)) and slow (koff(slow)) dissociation rate, respectively. Within this analysis, koff(fast) and Plateau was constrained to the average rate of dissociation and the average Plateau (in %) reached by BODIPY-TMR-CGP in control CHO-CS cells (i.e., cell not expressing the receptor of interest to determine the nonspecific BODIPY-TMR-CGP binding component).

CHO-CS cells = assay: Association and dissociation of BODIPY-TMR-CGP in control CHO-CS cells (nonspecific binding); parameters: species or system Chinese hamster; settings: for koff(fast) / konobs: CHO-CS cells
Description: Chinese hamster ovary (CHO)-K1 cells were used for all transient transfections. CHO-K1 cells stably expressing the secreted placental alkaline phosphatase reporter gene under the transcriptional control of a 6-cAMP response element promoter (CHO-CS cells) were used as a control, as appropriate. CHO-CS cell lines either expressing human wild-type β1-adrenoceptors (CHO-β1 cells; 1147 fmol/mg protein) ([6]) or human β1-adrenoceptors containing 11 amino acid mutations (G177V, L178I, V179I, C180L, T181M, A184I, I185V, A187G, V189T, L195Q, and W199Y that convert TM4 to the equivalent residues in the β2-adrenoceptor; CHO-β1TM4 cells) ([11]) were used. CHO-K1, CHO-CS, CHO-β1, and CHO-β1TM4 cells were grown at 37°C in CHO growth medium [DMEM/Ham's nutrient mixture F12 containing 10% (v/v) fetal calf serum and 2 mM L-glutamine] in a humidified 5% CO2/95% air atmosphere.
as §1, §2, §3
The koff is the dissociation rate of BODIPY-TMR-CGP. […]

human β1-adrenoceptor [2] = target: T1, human β1-adrenoceptor; assay: 3 nM BODIPY-TMR-CGP kinetics and influence of unlabeled ligands on its dissociation rate in CHO-β1 cells under infinite dilution; type: binding
[3] = target: T2, human β1-adrenoceptors containing 11 amino acid mutations that convert TM4 to the β2-adrenoceptor residues (CHO-β1TM4 cells) (Homo sapiens, UniProt P08588, A184I/A187G/C180L/G177V/I185V/L178I/L195Q/T181M/V179I/V189T/W199Y); assay: 3 nM BODIPY-TMR-CGP dissociation in absence and presence of unlabeled ligands in CHO-β1TM4 cells; type: binding; settings: infinite dilution, absence of unlabeled ligands
T2 construct: expressed in transfected cells
T2 sequence (P08588 whole entry G177V/L178I/V179I/C180L/T181M/A184I/I185V/A187G/V189T/L195Q/W199Y): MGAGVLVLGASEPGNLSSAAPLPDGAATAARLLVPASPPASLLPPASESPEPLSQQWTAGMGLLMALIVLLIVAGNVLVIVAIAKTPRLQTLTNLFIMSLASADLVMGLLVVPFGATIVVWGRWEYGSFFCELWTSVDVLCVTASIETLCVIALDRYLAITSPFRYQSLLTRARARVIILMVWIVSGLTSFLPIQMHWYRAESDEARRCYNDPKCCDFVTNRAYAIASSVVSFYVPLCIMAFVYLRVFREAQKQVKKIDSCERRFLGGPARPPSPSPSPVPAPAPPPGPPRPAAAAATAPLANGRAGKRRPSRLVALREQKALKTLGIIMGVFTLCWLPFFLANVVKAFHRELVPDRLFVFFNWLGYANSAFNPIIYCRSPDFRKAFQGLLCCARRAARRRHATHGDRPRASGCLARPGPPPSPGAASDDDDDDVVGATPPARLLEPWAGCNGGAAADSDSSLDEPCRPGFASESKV
Protocol: Chinese hamster ovary (CHO)-K1 cells were used for all transient transfections. CHO-K1 cells stably expressing the secreted placental alkaline phosphatase reporter gene under the transcriptional control of a 6-cAMP response element promoter (CHO-CS cells) were used as a control, as appropriate. […] In BiFC experiments, membrane-associated BODIPY-TMR-CGP fluorescence was measured by drawing ROIs around membranes of cells that were identified to express BiFC-constrained homodimers by examination of the YFP fluorescence. […] The koff is the dissociation rate of BODIPY-TMR-CGP. […] Within this analysis, koff(fast) and Plateau was constrained to the average rate of dissociation and the average Plateau (in %) reached by BODIPY-TMR-CGP in control CHO-CS cells (i.e., cell not expressing the receptor of interest to determine the nonspecific BODIPY-TMR-CGP binding component).

[4] = target: T3, β1YFPN/β1YFPC BiFC-constrained β1-adrenoceptor homodimers (Homo sapiens, UniProt P08588); assay: 3 nM BODIPY-TMR-CGP dissociation at BiFC-constrained wild-type β1-adrenoceptor homodimers in CHO-K1 cells; type: binding; settings: infinite dilution, absence of unlabeled ligands
T3 construct: to the C-terminal end of the full-length wild-type human β1-adrenoceptor; expressed in transfected cells; host or cells: CHO-K1 cells, transient co-transfection (pcDNA3.1)
T3 sequence (P08588 whole entry): as the sequence (P08588 whole entry, the tested form may be a part) above
T3 sequence (P08588 whole entry): as the sequence (P08588 whole entry, the tested form may be a part) above
Description: (§4) The SNAP-β1 construct was generated by fusing the SNAP-tag (New England Biolabs, Ipswich, MA, USA) to the N-terminal end of the wild-type human β1-adrenoceptor. The […] mutation ([7]) was introduced into the β1-YFPC and the SNAP-β1 sequence using the QuikChange site-directed mutagenesis kit (Agilent Technologies, Cheshire, United Kingdom). All sequences were confirmed by DNA sequencing. All receptor constructs were subcloned into pcDNA3.1 vectors. In bimolecular fluorescence complementation (BiFC) experiments, CHO-K1 cells were seeded onto coverslips on day 1 and transiently transfected with YFPN- and YFPC-tagged β1-adrenoceptor recombinant DNA (750 ng total) using Lipofectamine 2000 and Opti-MEM medium according to the manufacturer's instructions on day 2. […] In BiFC experiments, membrane-associated BODIPY-TMR-CGP fluorescence was measured by drawing ROIs around membranes of cells that were identified to express BiFC-constrained homodimers by examination of the YFP fluorescence. […] The koff is the dissociation rate of BODIPY-TMR-CGP. […] Within this analysis, koff(fast) and Plateau was constrained to the average rate of dissociation and the average Plateau (in %) reached by BODIPY-TMR-CGP in control CHO-CS cells (i.e., cell not expressing the receptor of interest to determine the nonspecific BODIPY-TMR-CGP binding component).

[5] = target: T4, β1YFPN/β1D138AYFPC BiFC-constrained β1-adrenoceptor homodimers (Homo sapiens, UniProt P08588); assay: 3 nM BODIPY-TMR-CGP dissociation at BiFC-constrained wild-type/nonligand-binding β1-adrenoceptor homodimers in CHO-K1 cells; settings: infinite dilution, absence of unlabeled ligands
T4 construct: to the C-terminal end of the full-length wild-type human β1-adrenoceptor; expressed in transfected cells; host or cells: CHO-K1 cells, transient co-transfection (pcDNA3.1)
T4 sequence (P08588 whole entry): as the sequence (P08588 whole entry, the tested form may be a part) above
T4 sequence (P08588 whole entry D138A partner): as the sequence (P08588 whole entry, the tested form may be a part) above, with D138A counted along it
Description: as §4

[6] = target: T5, SNAP-β1D138A β1-adrenoceptor (Homo sapiens, UniProt P08588, D138A); assay: Confocal imaging of 3 nM BODIPY-TMR-CGP binding to SNAP-tagged D138A β1-adrenoceptor in CHO-K1 cells; settings: CHO-K1 cells transiently transfected with SNAP-β1D138A, 10 min
T5 construct: expressed in transfected cells; host or cells: CHO-K1 cells, transient transfection (pcDNA3.1)
T5 sequence (P08588 whole entry D138A): as the sequence (P08588 whole entry, the tested form may be a part) above, with D138A counted along it
Description: The β1-yellow fluorescent protein (YFP)N and β1-YFPC receptor constructs were generated by fusing either the N-terminal fragment of YFP (YFPN; amino acids 1–155) or the C-terminal fragment of YFP (YFPC; amino acids 156–239) to the C-terminal end of the full-length wild-type human β1-adrenoceptor. The SNAP-β1 construct was generated by fusing the SNAP-tag (New England Biolabs, Ipswich, MA, USA) to the N-terminal end of the wild-type human β1-adrenoceptor. The D138A mutation ([7]) was introduced into the β1-YFPC and the SNAP-β1 sequence using the QuikChange site-directed mutagenesis kit (Agilent Technologies, Cheshire, United Kingdom). All sequences were confirmed by DNA sequencing. All receptor constructs were subcloned into pcDNA3.1 vectors.
Confocal microscopy was performed using a Zeiss LSM710 laser scanning microscope with a ×40 1.3 NA oil immersion lens. CHO-K1 cells were grown to 70% confluence in 8-well Labtek borosilicate chambered-cover glasses (Nalgene Nunc International, Fisher Scientific) and transiently transfected with SNAP-β1 or SNAP-β1D138A recombinant DNA using Lipofectamine 2000 and Opti-MEM medium according to the manufacturer’s instructions. […]

human β1-adrenoceptor [7] = target: T1, human β1-adrenoceptor; settings: cited from earlier work
[8] = 3 nM BODIPY-TMR-CGP, global fit of association and dissociation traces
[9] = 3 nM BODIPY-TMR-CGP, based on affinity from functional assays

bordifluoropyrromethane-tetramethylrhodamine-(±)CGP 12177 [BODIPY-TMR-CGP]
kon (human β1-adrenoceptor [1]; 10 nM BODIPY-TMR-CGP): 5.29 ± 0.79 ×10^7 M^−1⋅min^−1
konobs (human β1-adrenoceptor [1]; 10 nM BODIPY-TMR-CGP): 0.63 ± 0.08 min⁻¹
pKD (human β1-adrenoceptor [1]; 10 nM BODIPY-TMR-CGP): 8.71 ± 0.05
koff(slow) (human β1-adrenoceptor [1]; 10 nM BODIPY-TMR-CGP, monoexponential dissociation): 0.09 ± 0.01 min⁻¹
kon (human β1-adrenoceptor [1]; 30 nM BODIPY-TMR-CGP): 5.17 ± 0.28 ×10^7 M^−1⋅min^−1
konobs (human β1-adrenoceptor [1]; 30 nM BODIPY-TMR-CGP): 1.64 ± 0.08 min⁻¹
koff(slow) (human β1-adrenoceptor [1]; 30 nM BODIPY-TMR-CGP, 2-phase decay): 0.09 ± 0.01 min⁻¹
pKD (human β1-adrenoceptor [1]; 30 nM BODIPY-TMR-CGP): 8.77 ± 0.08
koff(fast) (human β1-adrenoceptor [1]; 30 nM BODIPY-TMR-CGP): 0.0412 s⁻¹
kon (human β1-adrenoceptor [1]; 100 nM BODIPY-TMR-CGP): 2.94 ± 0.12^*^,^# ×10^7 M^−1⋅min^−1
konobs (human β1-adrenoceptor [1]; 100 nM BODIPY-TMR-CGP): 3.08 ± 0.11 min^−1 and 3.08 ± 0.11^*^,^# min^−1
koff(slow) (human β1-adrenoceptor [1]; 100 nM BODIPY-TMR-CGP, 2-phase decay): 0.14 ± 0.02^*^,^# min^−1
pKD (human β1-adrenoceptor [1]; 100 nM BODIPY-TMR-CGP): 8.32 ± 0.06^*^,^#
koff(fast) (human β1-adrenoceptor [1]; 100 nM BODIPY-TMR-CGP): 0.0412 s⁻¹
koff(fast) (CHO-CS cells; 30 nM BODIPY-TMR-CGP): 0.041 ± 0.008 s⁻¹
konobs (CHO-CS cells; 30 nM BODIPY-TMR-CGP): 1.40 ± 0.26 min⁻¹
koff(fast) (CHO-CS cells; 100 nM BODIPY-TMR-CGP): 0.0412 ± 0.00217 s⁻¹
konobs (CHO-CS cells; 100 nM BODIPY-TMR-CGP): 1.62 ± 0.13 min⁻¹
average dissociation rate obtained in CHO-CS cells (CHO-CS cells; average over BODIPY-TMR-CGP concentrations, used as constraint for koff(fast)): 2.47 min⁻¹
association rate constant (kon) (human β1-adrenoceptor [2]; [8]): 5.27 ± 0.53 × 10^7 M^−1⋅min^−1
dissociation rate (koff) (human β1-adrenoceptor [2]; [8]): 0.0013 ± 0.00017 s⁻¹
pKD (human β1-adrenoceptor [2]; [8]): 8.83 ± 0.06
koff of 3 nM BODIPY-TMR-CGP (human β1-adrenoceptor [2]; infinite dilution, absence of unlabeled ligands, 1-phase dissociation): 0.0015 ± 0.00017 s⁻¹ and 0.0015 s⁻¹
koff of 3 nM BODIPY-TMR-CGP [3]: 0.0011 ± 8.3e-05 s⁻¹ and 0.0012 ± 0.00033 s⁻¹
koff of 3 nM BODIPY-TMR-CGP [4]: 0.00033 ± 0.00017 s⁻¹ and 0.00033 s⁻¹
koff of 3 nM BODIPY-TMR-CGP [5]: 0.0009 ± 0.000183 s⁻¹ and 0.00083 ± 0.00017 s⁻¹
binding of 3 nM BODIPY-TMR-CGP (membrane fluorescence) [6]: no binding
occupancy of the high-affinity β1-adrenoceptor conformation (human β1-adrenoceptor [7]; [9]): ~86%
occupancy of the secondary low-affinity β1-adrenoceptor conformation (human β1-adrenoceptor [7]; [9]): ~3%
Kd (human β1-adrenoceptor [7]; functional studies, read-out: affinity value for the high-affinity (orthosteric) β1-adrenoceptor conformation): 0.0006 µM
Kd (human β1-adrenoceptor [7]; read-out: affinity value for the low-affinity β1-adrenoceptor conformation): 0.087 µM
